# Like-named read-outs stand apart in the source and are kept apart here.
# How the values were obtained:
# [1] = UV absorption spectra in solution; assay type: physicochemical; details: for UV (dioxane): λmax: in dioxane; for λmax: in dioxane (Tables 1-3); for λ1/2-λ1/10: on the shortwave slope (Tables 1-3); for UV (DMF): λmax: in DMF
# Excerpt: For a, preferably singly recordable, optical data carrier according to the invention which is written and read by light from a blue laser such merocyanine dyes are preferred whose absorption maximum λmax2 is in the range from 420 bis 550 nm, wherein the wavelength λ½ at which the extinction on the shortwave slope of the absorption maximum of the wavelength λmax2 is half the extinction value at λmax2 and the wavelength λ 1/10 at which the extinction on the shortwave slope of the absorption maximum of the wavelength λmax2 is a tenth of the extinction value at λmax2, are preferably in each case no further than 50 nm away from each other.
# The absorption spectra are measured for example in solution.
# Suitable merocyanines having the required spectral properties are in particular those in which the change in dipole moment Δμ=|μg-μag|, i.e. the positive difference between the dipole moments in the ground state and in the first excited state, is as small as possible, preferably <5 D, and particularly preferably <2 D. One method of determining such a change in dipole moment Δμ is described for example in F. Würthner et al., Angew. Chem. 1997, 109, 2933 and in the literature cited therein. Low solvatochromism (dioxane/DMF) is also a suitable criterion for selection. Merocyanines are preferred whose solvatochromism Δλ=|λDMF-λdioxane|, i.e. the positive difference between the absorption wavelengths in the solvents dimethylformamide and dioxane is <20 nm, particularly preferably <10 nm and very particularly preferably <5 nm.
# [2] = Recording/readout test of optical disc with vapour-deposited phthalocyanine information layer
# Excerpt: Directly on top of the grooved surface the information layer of 40 nm was coated by vacuum vapor deposition method. […] Total thickness of the adhesive layer and the cover layer was set as 100 μm.
# The parameters of readout/recording setup was as follows.
# Numerical aperture of the objective lens=0.85, two element lens
# Readout laser power=0.30 mW
# Writing laser power=6.0 mW
# Pulse strategy=7 pulses with 50% duty inside one mark
# The dye dichloro-silicon-phthalocyanine (SiCl2Pc) was applied for the information layer.
# [3] = Solubility in coating solvent; assay type: physicochemical; details: in TFP (2,2,3,3-tetrafluoropropanol)
# [4] = UV absorption spectra in solution; assay type: physicochemical
# [5] = = |λDMF − λdioxane| (Tables 1-3)
# [6] = molar extinction coefficient at absorption maximum
compound,measurement,setting,value
CCCCCCCCCCCCN1C(=O)/C(=C/c2ccc(N(C)C)o2)C(=O)N(C)C1=O [Example 27],UV (dioxane): λmax,[1],483 nm
same,λ½-λ1/10 (shortwave slope),[1],32 nm
dichloro-silicon-phthalocyanine [Example 2],readout stability,"[2]; SiO2 buffer layer and PSA layer, 100 μm cover",very high
CN1/C(=C\C=C(\C#N)c2nc3ccccc3s2)C(C)(C)c2ccccc21 [Example 76],λmax,[1],462 nm
same,λ1/2-λ1/10,[1],34^3) nm
"[Cl][Al]1[n]2c3c4ccccc4c2/N=C2N=C(/N=c4/c5ccccc5/c([n]41)=N/C1=NC(=N\3)/c3ccccc31)c1ccccc1\2 [Example 1, monochloro-aluminium-phthalocyanine]",readout stability,[2],surprisingly good
C=C1N(C)c2ccc(C)cc2C1(C)C [Example 63],Δλ,[1]; [5],6 nm
same,ε,[1]; Tables 1-3,41530 L/mol/cm
same,λmax,[1],503 nm
same,λ1/2-λ1/10,[1],36^3) nm
C=C1N(C)c2ccccc2C1(C)C [Example 56],Δλ,[1]; [5],5 nm
same,ε,[1]; Tables 1-3,46470 L/mol/cm
same,λmax,[1],499 nm
same,λ1/2-λ1/10,[1],36^3) nm
CC1=C([n+]2ccccc2)C(=O)NC(=O)/C1=C/C=C1\N(C)c2ccccc2C1(C)C [Example 26],UV (methanol): λmax,[1]; in methanol,513 nm
same,ε,[1]; [6],86510 L/mol/cm
same,λ½-λ1/10 (shortwave slope),[1],38 nm
C=C1N(CCCCN2C(=C)C(C)(C)c3ccccc32)c2ccccc2C1(C)C [Example 77],λmax,[1],500 nm
CCCCN1C(=O)C(C#N)=C(C)/C(=C\C=C2/N(C)c3ccccc3C2(C)C)C1=O [Example 24],UV (DMF): λmax,[1],522 nm
same,UV (dioxane): λmax,[1],520 nm
same,Solubility,[3],> 2%
same,λ½-λ1/10 (longwave slope),[4],12 nm
Cc1cnc(N(C)C)s1 [Example 28],Δλ,[1]; [5],16 nm
same,ε,[1]; Tables 1-3,40990 L/mol/cm
same,λmax,[1],470 nm
same,λ1/2-λ1/10,[1],32^3) nm
CCCN1C(=O)C(C#N)=C(C)/C(=C\C=C\N(C)c2ccc(OC)cc2)C1=O [Example 25],UV (DMF): λmax,[1],477 nm
same,UV (dioxane): λmax,[1],482 nm
same,ε,[1]; [6],73013 L/mol/cm
same,λ½-λ1/10 (shortwave slope),[1],33 nm
same,Δλ,[1]; solvatochromism |λDMF-λdioxane|,5 nm
same,Solubility,[3],> 2%
